Laboratory results: PMC10610134, “Verubulin (Azixa) Analogues with Increased Saturation: Synthesis, SAR and Encapsulation in Biocompatible Nanocontainers Based on Ca^2+ or Mg^2+ Cross-Linked Alginate” (Pharmaceuticals, 2023)

Columns and labels:
HCT116 cells = experiment: Apoptosis induction, Annexin V / 7-AAD flow cytometry; type: cell-based, human
Experimental: Apoptosis is an important and active regulatory pathway of cell growth and proliferation. Annexin V is a calcium-dependent phospholipid-binding protein with a high affinity for phosphatidylserine (PS), a membrane component normally localized to the internal face of the cell membrane. Early in the apoptotic pathway, molecules of PS are translocated to the outer surface of the cell membrane where Annexin V can readily bind them.
After incubation, the cells were harvested by trypsinization, precipitated by centrifugation (3000 rpm), washed with cold PBS and recentrifuged. Aliquots of cells were processed as recommended in the Muse Annexin V& Dead Cell Kit (Luminex Corporation, Austin, TX, USA). The results were recorded on a Muse Cell Analyzer flow cytometer (Merck, Rahway, NJ, USA).

[1] = test system: microtubules in carcinoma A549 cells; experiment: Immunofluorescent microscopy of microtubules; type: cell-based, human; conditions: 24 h, A549
Experimental: Since verubulin is known to stimulate microtubule disassociation, we performed an immunofluorescent microscopy study to determine the response of microtubule dynamics in carcinoma A549 cells to the treatment with representative compounds 2b,c,e. […] Aberrant cell morphology—contraction and rounding (Figure 2A,B) or contraction and elongation (Figure 2C)—was also observed.
A549 cells were seeded on coverslips (treated with poly-l-lysine at a concentration of 33 mg/L for an hour). Compounds were added up to the corresponding concentration after 24 h attachment and growth of the cells. Then, cells were incubated 24 h.
The cells were fixed with methanol (precooled in liquid nitrogen for 20 min), no additional permeabilization was performed. To prevent non-specific binding, cells were incubated with 4% BSA in PBS for one hour. Then, a solution of mouse monoclonal antibodies against alpha-tubulin cross-linked with Alexa 488 fluoroform (Thermo Fisher Scientific, Waltham, MA, USA, 32-2588) at a concentration of 5 μg/mL in 1% BSA solution in PBS was added to the cells, and the slides were incubated at +5 °C in a water chamber for 24 h. After the end of the incubation time, the cells were washed several times with PBS buffer solution and fixed on a glass slide with Moviol. Next day, cells were imaged with a ZEISS LSM 900 (ZEISS Microscopy, GmbH, Germany) and images processed with ImageJ.

[2] = test system: immortalized lung fibroblast cell line VA13 (WI38 subline 2RA); experiment: MTT cytotoxicity assay, VA13; type: cell-based; conditions: Homo sapiens, VA-13; 64 h treatment, MTT; read-out: IC50, nM VA13
From the text: (§1) The obtained series of verubulin analogues 2a–r (which also included three by-products isolated in the reactions according to Scheme 2) were initially evaluated for cytotoxicity against commonly used human breast cancer cell line MCF7′ (fast-growth subclone), human lung epithelial carcinoma cell line A549 and etiologically non-cancer immortalized lung fibroblast cell line VA13 (WI38 subline 2RA). Cytotoxicity against immortalized human embryonic kidney cell line HEK293T, characterized by a high growth rate, was also studied regarding cytotoxicity against non-cancerous fast-growth cells. A standard MTT assay was performed; verubulin (1) served as a positive reference. The data obtained are presented in Table 1 (for dose–response curves, see Supplementary Materials).
Human breast cancer cell line MCF7′ and human lung adenocarcinoma cell line A549 were kindly provided by Dr. S. Dmitriev (Lomonosov Moscow State University), immortalized human fibroblast cell line VA13 (WI38 subline 2RA) was kindly provided by Dr. M. Rubtsova (Lomonosov Moscow State University), human embryonic kidney HEK293T cell line was kindly provided by Dr. E. Knyazhanskaya (Lomonosov Moscow State University). MCF7′, VA13, A549 and HEK293T cell lines were maintained in DMEM/F-12 (Thermo Fisher Scientific, Waltham, MA, USA) culture medium containing 10% fetal bovine serum (Thermo Fisher Scientific, Waltham, MA, USA) and 50 μg/mL penicillin and 0.05 mg/mL streptomycin at 37 °C (Thermo Fisher Scientific, Waltham, MA, USA) in 5% CO2. Cells were maintained at 37 °C in a humidified MCO-18AC incubator (Sanyo, Tokyo, Japan) supplied with 5% CO2. Cell cultures were tested for the absence of mycoplasma and validated by STR.
(§2) The cytotoxicity of the substances was tested using the 3-(4,5-dimethylthiazol-2-yl)2,5-diphenyl tetrazolium bromide (MTT) assay with some modifications. A total of 2500 cells per well for the MCF7′, HEK293T, A549 cell lines or 4000 cells per well for the VA-13 cell line were plated out in 135 μL of DMEM-F12 media (Gibco, Thermo Fisher Scientific, Waltham, MA, USA) in a 96-well plate and incubated in the 5% CO2 incubator for the first 20 h without treatment. Then, 15.8 μL of media–DMSO solutions of tested substances (final DMSO concentrations in the media were 0.5% or less) was added to the cells (triplicate each) and cells were treated for 64 h with 0.023 mg/L–50 mg/L (eight dilutions) of compounds 2f,n,o,r; 1.14 μg/L–2.5 mg/L (eight dilutions) of compounds 2a,b,d,g,h,k,l,p,q; 57.2 ng/L–125 μg/L (eight dilutions) of compounds 2e,i,j; 22.9 ng/L–50 μg/L (eight dilutions) of compounds 1,2c,m. Doxorubicin was used as a control substance. Then, the MTT reagent (Paneco LLC, Moscow, Russia) was added to cells up to a final concentration of 0.5 g/L (10 × stock solution in PBS was used) and incubated for 2 h at 37 °C in the incubator, under an atmosphere of 5% CO2. Then, the MTT solution was discarded, and 140 μL of DMSO (PharmaMed LLC, Moscow, Russia) was added. The plates were swayed on a shaker (120 rpm) to dissolve the formazan. The absorbance was measured using a microplate reader (VICTOR X5 Light Plate Reader, PerkinElmer, Waltham, MA, USA) at a wavelength of 555 nm (in order to measure formazan concentration). The results were used to construct dose–response graphs and to estimate IC50 values (IC50 is the concentration resulting in half of the maximal cytotoxic effect) with GraphPad Prism V, GraphPadSoftware, Inc., San Diego, CA, USA.

[3] = test system: MCF7′, A549, VA13, HEK293T cell lines; experiment: MTT cytotoxicity, SAR statements over the cell line panel; type: cell-based, human
From the text: as §1, §2

With `COc1ccc(N(C)c2nc(C)nc3c2CCCC3)cc1` [Compound 2c, N-(4-methoxyphenyl)-N,2-dimethyl-5,6,7,8-tetrahydroquinazolin-4-amine] the “apoptotic cells, early plus late” value (HCT116 cells; 2 × IC50, 48 h, HCT116) was 30%, the “Live (viable cells)” value (HCT116 cells; human, 48 h) was 69.45% and the “effect on microtubules (MTs)” value ([1]; 10 μM) was “full depolymerization of MTs”. For the same compound, the effect on microtubules ([1]; 5–10 μM) was “pronounced or complete disruption of microtubules”, the IC50 [2] was 1.6 ± 0.4 nM and the “cytotoxicity, in words” value ([3]; MTT, 64 h) was “retained high cytotoxicity of the parent molecule”. The “selectivity towards tumor cells” value ([3]; pair A549/VA13) was “no selectivity”.
